The record followed here is patent US20240238300A1, “TREATMENT METHODS FOR SUBJECTS WITH CANCER HAVING AN ABERRATION IN EGFR AND/OR HER2” (TAIHO PHARMACEUTICAL CO., LTD., priority 2021, published 2024).

The data set concerns intracranial NCI-N87-luc human gastric carcinoma xenografts. Put plainly: intracranial antitumor effect, NCI-N87-luc xenografts. The format is in vivo, nude mice. Conditions: Day 22. How it is done: The intracranial antitumor effect of Compound (1) was evaluated using Compound (1) in nude mice intracranially implanted with NCI-N87-luc cells, which were engineered to stably express the luciferase gene using the HER2-overexpressing NCI-N87 human gastric carcinoma cell line. Compound (1) dosing suspensions using 0.5% w/v HPMC as vehicle were prepared with Compound (1) at 3 dose levels (16.0, 20.0, or 25.0 mg/kg/day) and administered PO QD for 21 days. The control group received 0.5% weight per volume (w/v) hydroxypropyl methylcellulose (HPMC) solution orally once daily for 21 days. The antitumor effect of poziotinib was also evaluated using this model. Poziotinib was administered PO QD for 21 days at 2 dose levels (0.5 or 1.0 mg/kg/day).

Turning to `C=CC(=O)N1C[C@H](n2c(C#CC3CC3)c(C(=O)N[C@H](C)c3ccccc3)c3c(N)ncnc32)C[C@@H]1C` [Compound (1), 7-((3R,5S)-1-acryloyl-5-methylpyrrolidin-3-yl)-4-amino-6-(cyclopropylethynyl)-N—((R)-1-phenylethyl)-7H-pyrrolo[2,3-d]pyrimidine-5-carboxamide], the “T/C ratio of the mean total flux” value was 16.9% (16.0 mg/kg/day PO QD 21 days) and 4.7% (20.0 mg/kg/day PO QD 21 days). Besides, the “mean body weight change (BWC)” value runs as follows: (16.0 mg/kg/day) 1.4%; (20.0 mg/kg/day) −0.4%.
